Results on 1 compound are retold here after US12509446B2, “FYN and VEGFR2 kinase inhibitors” (ROTTAPHARM BIOTECH S.R.L., priority 2019, dated 2025).

Structures are written as SMILES.

Data set [1] in a line: Pharmacokinetics after administration into the knee joint of rats. It is filed as in vivo. The settings on record: suspension into the knee joint.
Data set [2] relates to ADAMTS-5. Briefly: Gene expression in rat articular chondrocytes under IL-1β stimulation, ADAMTS-5. It is filed as cell-based. The conditions noted are these: Rattus norvegicus, Chondrocyte; 6 h incubation. In short, it runs like this:
(§1)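 Rat chondrocytes, day 10 post-plating; switched to DMEM GlutaMAX I 0.4%; compound + cytokine 2 ng/ml; 6 h (IL-1β, ADAMTS-5) or 24 h (MMP3, MMP13); total RNA → cDNA → TaqMan qPCR, 18S-normalised.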

Data set [3] addresses T1, VEGFR2 (Homo sapiens (Human), UniProt P35968). Briefly: ADP-Glo kinase assay at high ATP concentration (0.5 mM), VEGFR2. It is filed as biochemical. The conditions noted are these: ATP 0.5 mM; read-out: VEGFR2 IC50 in the presence of high ATP concentration. (In ADP-Glo the light output rises with the ADP produced.)
Experimental: The inhibition of Fyn and VEGFR2 kinase activity was evaluated in the presence of a fixed ATP concentration (0.5 mM), near to the millimolar range present in cells. The assay was performed by The ADP-Glo™ Kinase Assay (Promega), monitoring ADP produced in the kinase reaction. Kinase reaction was performed in 10 μl, according to supplier indication, in a white 384-well plate.
Inhibitor solutions in DMSO/Kinase buffer and the kinase (Fyn 2.5 ng/μl and VEGFR2 0.5 ng/μl final concentration in assay) were pre-incubate 15 minutes at room temperature. The range of inhibitor concentrations was from 10^−10 M up to 10^−5 M (final concentration in assay). To start the reaction, a substrate/ATP mix (0.5 mM final concentration, corresponding to 10× ATP KM value) was added to each sample. After 60 minutes incubation at room temperature, ADP-Glo™ Reagent and Kinase Detection Reagent, added and incubated in sequence according to supplier indication, allowed to stop and develop the kinase reaction. The percentage of inhibition, calculated towards the enzymatic activity in the absence of test compound, and the corresponding inhibition curves were analyzed by non-linear curve fitting (GraphPad software, version 7 for Windows), allowing to calculate the IC50 value.
Data set [4] concerns the target Fyn-NanoLuc fusion protein (Homo sapiens (Human), UniProt P06241). Description: NanoBRET intracellular target engagement of Fyn in HEK293 transfected cells. In kind it is cell-based. The conditions noted are these: 2 hours treatment, tracer 0.33 μM, read-out: IC50 binding value towards the Fyn-NanoLuc fusion protein. The protocol:
The NanoBRET™ TE intracellular kinase assay K-4 (Promega, #N2520) was used to determine the intracellular target engagement of Fyn kinase in HEK293 cells (ATCC®, Cat. CRL-1573) transiently transfected with Fyn-NanoLuc® fusion vector (Promega, #NV1411), therefore expressing the Fyn-NanoLuc© fusion protein. The tracer was used at the final concentration of 0.33 μM, and the treatment of cells with Compounds was performed for 2 hours. Luminescence values were measured at 450 nm and 610 nm (GloMax® Discover, Promega) and raw BRET ratio values for each sample were determined. Compounds that specifically engage the intracellular target protein-NanoLuc® fusion will result in a decrease in BRET signal and in lower BRET ratio values
(In general: BRET reads energy transfer from a luciferase to a nearby fluorophore.)

Data set [5] in a line: Pharmacokinetics, systemic routes, rats. It is filed as in vivo.
In data set [6] the target is AMPKa. Briefly: Kinase selectivity (Eurofins Cerep), AMPKa. The conditions noted are these: maximal concentration tested 10 μM. In kind it is biochemical, human. As for the experimental part:
(§2) The assays were performed in Eurofins Cerep (France). The concentration range of the compound under investigation was from 10^−9 M up to 10^−5 M final concentration.

For data set [7], the target named is Src (Homo sapiens (Human), UniProt P12931). The conditions noted are these: read-out: KINASE SELECTIVITY IC50 Src. The protocol:
as §2

Data set [8] deals with Yes (Homo sapiens (Human), UniProt P07947). The conditions noted are these: read-out: KINASE SELECTIVITY IC50 Yes. As for the experimental part:
as §2

Data set [9] concerns the target FGFR2 (Homo sapiens (Human), UniProt P21802). The settings on record: read-out: KINASE SELECTIVITY IC50 FGFR2. As for the experimental part: as §2
Data set [10] deals with Lyn-A (Homo sapiens (Human), UniProt P07948). The settings on record: read-out: KINASE SELECTIVITY IC50 Lyn-A. As for the experimental part:
as §2

Data set [11] has as its target Jak3 (Homo sapiens (Human), UniProt P52333). The settings on record: read-out: KINASE SELECTIVITY IC50 Jak3. As for the experimental part:
as §2

In data set [12] the target is T1, VEGFR2. Briefly: In vitro VEGFR2 kinase activity assay (Eurofins Cerep). It is filed as biochemical. The settings on record: read-out: VEGFR2 KINASE INHIBITION IC50. An outline of the steps:
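Contract biochemical kinase assay on human VEGFR2 with inhibitors at 10^−8 to 10^−5 M final (some re-tested from 10^−9 M). Activity expressed as percent of no-compound control; IC50 by non-linear regression of mean replicate inhibition curves.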

Data set [13] deals with MMP3. Description: Gene expression in rat articular chondrocytes under IL-1β stimulation, MMP3. The conditions noted are these: Rattus norvegicus, Chondrocyte; 24 h incubation. In kind it is cell-based. In short, it runs like this:
as §1

The target in data set [14] is Fyn (Homo sapiens (Human), UniProt P06241). Briefly: Z′-LYTE in vitro Fyn kinase activity assay. The conditions noted are these: ATP 50 μM; read-out: FYN KINASE INHIBITION IC50. It is filed as biochemical. An outline of the steps:
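Z′-LYTE FRET format with full-length active Fyn in 50 mM Hepes pH 7.5, 10 mM MgCl2, 1 mM EGTA, 0.01% Brij-35, 1% DMSO final; 60 minutes at 25° C. Percent phosphorylation from 0% and 100% phosphorylation controls; IC50 by non-linear curve fitting of percent inhibition.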

T1 sequence (P35968 20-1356): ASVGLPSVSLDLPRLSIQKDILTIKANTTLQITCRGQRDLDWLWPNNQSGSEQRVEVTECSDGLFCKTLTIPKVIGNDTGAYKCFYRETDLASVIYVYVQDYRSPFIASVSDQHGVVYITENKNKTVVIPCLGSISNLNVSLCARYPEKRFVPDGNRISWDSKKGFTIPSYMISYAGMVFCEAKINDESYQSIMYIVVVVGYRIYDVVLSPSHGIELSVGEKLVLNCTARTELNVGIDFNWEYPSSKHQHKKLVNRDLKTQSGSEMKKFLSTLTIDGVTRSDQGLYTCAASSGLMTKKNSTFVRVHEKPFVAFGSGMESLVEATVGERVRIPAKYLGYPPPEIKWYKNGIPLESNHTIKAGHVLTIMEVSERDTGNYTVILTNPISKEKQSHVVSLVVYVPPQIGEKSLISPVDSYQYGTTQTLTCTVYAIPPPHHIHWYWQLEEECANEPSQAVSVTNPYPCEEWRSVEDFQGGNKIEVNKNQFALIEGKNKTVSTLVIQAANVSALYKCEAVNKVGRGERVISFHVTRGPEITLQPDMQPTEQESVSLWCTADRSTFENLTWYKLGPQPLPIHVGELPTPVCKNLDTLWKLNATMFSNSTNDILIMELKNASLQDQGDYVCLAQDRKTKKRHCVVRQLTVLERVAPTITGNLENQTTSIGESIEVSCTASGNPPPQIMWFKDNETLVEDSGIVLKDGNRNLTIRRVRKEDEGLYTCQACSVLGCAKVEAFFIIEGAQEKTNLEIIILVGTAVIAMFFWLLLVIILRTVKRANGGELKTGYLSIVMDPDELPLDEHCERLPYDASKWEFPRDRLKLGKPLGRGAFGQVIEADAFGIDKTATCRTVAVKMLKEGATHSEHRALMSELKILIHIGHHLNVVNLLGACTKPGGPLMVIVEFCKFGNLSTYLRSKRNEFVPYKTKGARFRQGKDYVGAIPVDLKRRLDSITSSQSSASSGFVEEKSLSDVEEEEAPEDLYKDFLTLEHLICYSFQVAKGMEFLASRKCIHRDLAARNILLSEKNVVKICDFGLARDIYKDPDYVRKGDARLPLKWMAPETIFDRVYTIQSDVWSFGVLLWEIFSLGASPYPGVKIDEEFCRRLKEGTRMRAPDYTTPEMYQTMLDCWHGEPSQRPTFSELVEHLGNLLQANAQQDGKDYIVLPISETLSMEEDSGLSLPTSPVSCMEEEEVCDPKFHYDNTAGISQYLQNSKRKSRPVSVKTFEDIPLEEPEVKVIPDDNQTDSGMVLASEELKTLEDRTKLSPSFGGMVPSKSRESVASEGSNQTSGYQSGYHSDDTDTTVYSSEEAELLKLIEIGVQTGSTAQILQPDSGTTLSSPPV
Sequence of Lyn-A (P07948 whole entry): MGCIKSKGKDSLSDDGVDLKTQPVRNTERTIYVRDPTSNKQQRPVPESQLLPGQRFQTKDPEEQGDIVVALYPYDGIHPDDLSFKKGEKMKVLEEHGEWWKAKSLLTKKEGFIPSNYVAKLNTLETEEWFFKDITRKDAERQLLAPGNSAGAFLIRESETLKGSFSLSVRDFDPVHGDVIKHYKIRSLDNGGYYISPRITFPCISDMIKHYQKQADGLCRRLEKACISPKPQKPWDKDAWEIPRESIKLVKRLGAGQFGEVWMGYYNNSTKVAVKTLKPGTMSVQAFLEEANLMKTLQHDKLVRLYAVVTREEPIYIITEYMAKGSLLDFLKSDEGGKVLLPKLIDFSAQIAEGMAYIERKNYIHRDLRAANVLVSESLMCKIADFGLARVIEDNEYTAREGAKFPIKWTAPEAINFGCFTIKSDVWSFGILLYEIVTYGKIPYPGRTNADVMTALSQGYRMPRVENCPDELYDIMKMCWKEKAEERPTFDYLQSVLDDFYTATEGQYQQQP
Sequence of FGFR2 (P21802 22-821): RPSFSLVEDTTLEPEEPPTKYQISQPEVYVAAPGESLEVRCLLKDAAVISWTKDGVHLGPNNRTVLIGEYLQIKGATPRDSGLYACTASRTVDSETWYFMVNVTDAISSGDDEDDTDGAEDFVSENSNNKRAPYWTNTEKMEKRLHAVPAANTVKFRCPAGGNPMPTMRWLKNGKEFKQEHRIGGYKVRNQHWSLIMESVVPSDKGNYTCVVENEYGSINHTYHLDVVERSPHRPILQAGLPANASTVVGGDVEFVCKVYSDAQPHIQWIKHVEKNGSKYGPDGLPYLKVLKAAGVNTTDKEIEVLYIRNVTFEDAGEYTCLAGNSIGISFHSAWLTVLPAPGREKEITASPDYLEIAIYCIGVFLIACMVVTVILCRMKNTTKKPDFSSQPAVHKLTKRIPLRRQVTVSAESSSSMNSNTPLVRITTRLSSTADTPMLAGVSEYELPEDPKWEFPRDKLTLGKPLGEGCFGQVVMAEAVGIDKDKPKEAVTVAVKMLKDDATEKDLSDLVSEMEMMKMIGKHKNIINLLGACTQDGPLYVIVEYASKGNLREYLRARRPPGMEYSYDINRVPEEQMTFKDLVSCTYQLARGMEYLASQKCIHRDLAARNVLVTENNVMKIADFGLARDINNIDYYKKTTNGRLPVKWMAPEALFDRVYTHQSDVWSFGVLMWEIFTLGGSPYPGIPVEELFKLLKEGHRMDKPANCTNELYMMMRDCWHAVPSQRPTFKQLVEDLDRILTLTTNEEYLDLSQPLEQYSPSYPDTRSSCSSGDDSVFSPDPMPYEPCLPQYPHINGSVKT
Sequence of Src (P12931 whole entry, looked up): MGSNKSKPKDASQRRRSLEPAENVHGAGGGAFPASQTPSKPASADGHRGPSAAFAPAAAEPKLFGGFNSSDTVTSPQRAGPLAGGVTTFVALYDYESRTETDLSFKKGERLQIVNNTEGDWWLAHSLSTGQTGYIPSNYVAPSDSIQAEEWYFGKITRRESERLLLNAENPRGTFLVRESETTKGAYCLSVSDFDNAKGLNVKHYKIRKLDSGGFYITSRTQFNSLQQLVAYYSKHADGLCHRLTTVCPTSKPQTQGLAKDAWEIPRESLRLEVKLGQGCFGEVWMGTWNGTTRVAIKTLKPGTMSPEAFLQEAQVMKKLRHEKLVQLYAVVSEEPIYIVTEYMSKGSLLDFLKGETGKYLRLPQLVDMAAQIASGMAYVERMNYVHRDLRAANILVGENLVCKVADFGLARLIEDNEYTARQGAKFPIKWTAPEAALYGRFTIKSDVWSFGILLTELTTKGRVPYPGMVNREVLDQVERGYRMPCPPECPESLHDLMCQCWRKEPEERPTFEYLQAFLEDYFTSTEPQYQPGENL
Sequence of Yes (P07947 whole entry): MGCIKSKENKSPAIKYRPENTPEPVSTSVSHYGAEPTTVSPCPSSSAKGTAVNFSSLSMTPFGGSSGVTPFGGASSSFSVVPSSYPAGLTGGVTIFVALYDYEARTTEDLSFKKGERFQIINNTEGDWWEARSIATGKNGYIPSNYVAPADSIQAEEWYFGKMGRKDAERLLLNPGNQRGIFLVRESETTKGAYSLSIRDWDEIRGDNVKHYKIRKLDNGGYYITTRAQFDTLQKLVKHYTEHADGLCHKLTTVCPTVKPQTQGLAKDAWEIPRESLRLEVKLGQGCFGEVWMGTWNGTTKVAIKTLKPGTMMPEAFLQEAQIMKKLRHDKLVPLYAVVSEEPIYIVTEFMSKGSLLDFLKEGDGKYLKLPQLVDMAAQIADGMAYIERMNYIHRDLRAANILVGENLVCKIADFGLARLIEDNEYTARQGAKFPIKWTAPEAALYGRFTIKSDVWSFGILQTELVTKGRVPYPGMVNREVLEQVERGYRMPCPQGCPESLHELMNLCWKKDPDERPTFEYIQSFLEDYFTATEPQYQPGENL
Sequence of Fyn (P06241 whole entry): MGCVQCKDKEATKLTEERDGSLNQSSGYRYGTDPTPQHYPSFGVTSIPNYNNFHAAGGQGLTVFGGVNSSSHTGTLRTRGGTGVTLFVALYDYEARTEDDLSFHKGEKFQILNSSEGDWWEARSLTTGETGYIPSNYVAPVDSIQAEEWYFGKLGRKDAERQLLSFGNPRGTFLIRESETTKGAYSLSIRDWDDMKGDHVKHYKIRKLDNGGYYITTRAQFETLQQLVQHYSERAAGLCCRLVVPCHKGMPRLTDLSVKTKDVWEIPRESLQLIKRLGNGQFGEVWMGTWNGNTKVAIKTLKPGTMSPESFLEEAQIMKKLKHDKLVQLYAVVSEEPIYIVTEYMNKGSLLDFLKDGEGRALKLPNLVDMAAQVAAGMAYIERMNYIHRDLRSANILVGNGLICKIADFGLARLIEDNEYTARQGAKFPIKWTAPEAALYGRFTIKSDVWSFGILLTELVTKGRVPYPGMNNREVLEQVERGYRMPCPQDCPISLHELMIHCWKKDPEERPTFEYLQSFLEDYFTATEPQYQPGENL
Sequence of Fyn-NanoLuc fusion protein (P06241 whole entry, the tested form may be a part): as the sequence (P06241 whole entry) above

In the case of `Cc1ccc(NC(=O)c2cccc(C(F)(F)F)c2)cc1CCc1cc(Nc2cnccn2)[nH]n1` [Compound 3, N-(4-methyl-3-(2-(5-(pyrazin-2-ylamino)-1H-pyrazol-3-yl)ethyl)phenyl)-3-(trifluoromethyl)benzamide], in [1], the “Permanence in the synovial fluid and articular tissues (cartilage and synovial fat)” value is given as “at least 14 days”. Also, the IC50 was 0.034 µM in [2]; 0.058 µM in data set [3]; 1.5 µM in data set [4]; above 10 µM in data set [6]; 0.37 µM in [7]; 0.017 µM in data set [8]. Besides, the IC50 in data set [9] came out at 3 µM; in data set [10], 0.059 µM; in data set [11], 1.76 µM; in data set [12], 0.007 µM; in [13], 0.323 µM; in data set [14] it was 0.009 µM. In addition, the Metabolism in rats entry in data set [5] is recorded as “lack of important metabolism”. In addition, the bioavailability – broadly, dose-corrected exposure relative to a reference, in per cent – in data set [5] (rat, in vivo, oral route, read-out: Absolute bioavailability) is around 6%.
